# In US20090124587A1, “METHODS FOR TREATING CANCER USING 17alpha-HYDROXYLASE/C17,20-LYASE INHIBITORS” (priority 2007, published 2009):
# Columns and labels:
# Type in all cases: in vivo, human
# [1] = tested on: circulating tumor cells (CTC); assay: Number of circulating tumor cells after administration; conditions: certain patients after administration
# [2] = Safety, dose limiting toxicity in phase I/II study; conditions: all subjects tested, Group 1 (250-2000 mg/day) and Group 2 (1000 mg/day)
# Procedure: An open label phase I/II study was carried out to evaluate the safety, efficacy and recommended dose of abiraterone acetate in prostate cancer patients. Pharmacokinetics (PK), pharmacodynamics and antitumor efficacy were also studied.
# (§1) The effect of abiraterone acetate on the blood levels of prostate-specific antigen (PSA) was evaluated. Two groups of subjects were involved in the study. The first group (“Group 1”) was comprised of the 18 subjects discussed above as well as 12 additional subjects that were administered 1000 mg/day of abiraterone acetate. All 30 of the subjects in Group 1 were castrated and hormone refractory; however, none of the 30 had been treated with chemotherapy, i.e., they were chemotherapy-naïve. The second group (“Group 2”) was comprised of 13 subjects, all of whom were castrated and hormone refractory. Also, these 13 subjects had been administered docetaxel and were chemotherapy refractory. The subjects in Group 2 were administered 1000 mg/day of abiraterone acetate. The subjects in both groups were administered abiraterone acetate until they progressed.
# [3] = Analgesic use in Group 1 and Group 2 subjects; conditions: subjects of both groups
# [4] = tested on: prostate-specific antigen (PSA); assay: Effect of abiraterone acetate on blood levels of prostate-specific antigen (PSA)
# Procedure: as §1
# 60% of the Group 1 subjects (18 of 30) experienced a decline of PSA levels of greater than 50% for more than 10 days. A third of these subjects experienced PSA declines of greater than 90% for more than 10 days. FIGS. 9A-9D show the effect of the administration of abiraterone acetate on PSA levels for certain of the Group 1 subjects that were administered 250 mg/day, 500 mg/day, 750 mg/day and 1000 mg/day of abiraterone acetate. With respect to the Group 2 subjects, 7 of the 13 subjects experienced a decline in PSA levels of about 50% for more than 10 days.
# [5] = Food effect PK study, two single oral 1000 mg doses of abiraterone acetate, fed (high fat) vs fasted
# Procedure: (§2) To measure the amount of abiraterone and abiraterone acetate in the samples, these compounds were extracted from 100 uL human plasma using solid phase extraction (SPE) with cation mixed-mode polymer cartridges. Extracts were evaporated to dryness before reconstitution and analysis. Chromatography was carried out using a Luna™ C5 column (5 μm, 50 mm×2.1 mm id) with a gradient mobile phase consisting of 10 mM ammonium acetate and 2% propan-2-ol in acetonitrile. The flow rate was 0.2 mL/min and the run time 10.5 minutes. Abiraterone and abiraterone acetate were ionized using the electrospray interface in positive ion mode. Detection of analytes was via tandem mass spectrometry (MS/MS) in the multiple reaction monitoring (MRM) mode.
# PK modeling was conducted using a non-compartmental model, extra vascular input for plasma with WinNonLin Software®. Pharmacokinetic parameters estimated in the model include:
# Based on the above results, the PK parameters for a single dose of 1000 mg/day of abiraterone acetate were further studied in the 3 subjects who were administered the 1000 mg/day dose and in 3 additional subjects. Two single oral doses (1000 mg) of abiraterone acetate were administered separately, one concomitantly with food of high fat content and one in fasting state. The first single dose was administered on day −9 with PK blood samples being taken at 1, 2, 4, 6, 8, 24, 48 and 72 hours post dose. The second single dose was administered on day −3 with PK blood samples being taken at 1, 2, 4, 6, 8, 24 and 48 hours post dose for analysis.
# [6] = tested on: androgenic steroids, such as testosterone; assay: Blood plasma levels of androgenic steroids; conditions: some subjects
# Procedure: (§3) FIGS. 15A-15H show the blood plasma level of certain steroids over time in subjects that were administered 250 mg/day, 500 mg/day and 750 mg/day of abiraterone acetate.
# [7] = tested on: alkaline phosphatase (ALP); assay: Blood plasma levels of alkaline phosphatase; conditions: some subjects
# Procedure: as §3
# [8] = Pharmacokinetic study of abiraterone in hormone refractory prostate cancer patients, oral doses 250-2000 mg/day, fasted
# Procedure: A group of 15 subjects was divided into five groups. Members of each group were orally administered doses of 250 mg/day, 500 mg/day, 750 mg/day, 1000 mg/day or 2000 mg/day once a day. Before administration the subjects had fasted. PK blood samples were measured at 1, 2, 4, 6, 8, 24, and 72 hours post dose.
# as §2
# PK modeling was conducted using a non-compartmental model, extra vascular input for plasma with WinNonLin Software®. Pharmacokinetic parameters estimated in the model include: […]
# [9] = tested on: tumor lesions; assay: Effect on tumor mass size, CT scans (RECIST), bone disease, nodes and metastases
# Procedure: as §1
# The effect of the administration of abiraterone acetate on tumor mass size was observed.
compound,measurement,setting,value
"CC(=O)O[C@H]1CC[C@@]2(C)C(=CCC3C2CC[C@]2(C)C(c4cccnc4)=CCC32)C1 (stereo partly shown) [abiraterone acetate, 3-acetoxy-17-(3-pyridyl)androsta-5,16-diene]",number of circulating tumor cells (CTC),[1],declines
same,dose limiting toxicity (DLTs),[2],No dose limiting toxicity (DLTs) were observed
same,analgesic use,[3],decrease in analgesic use was observed
same,subjects with decline of PSA levels of greater than 50% for more than 10 days,"[4]; Group 1: 30 castrated, hormone refractory, chemotherapy-naïve subjects (18 of 30)",60%
same,subjects with PSA declines of greater than 90% for more than 10 days,"[4]; Group 1, fraction of these subjects",A third
same,subjects with decline in PSA levels of about 50% for more than 10 days,"[4]; Group 2: 13 castrated, hormone refractory, docetaxel-treated chemotherapy refractory subjects, 1000 mg/day",7 of the 13
same,AUC at 2000 mg relative to 1000 mg (doubling),"[5]; extended cohort, fasted group",no longer
same,AUC at 2000 mg relative to 1000 mg,"[5]; extended cohort, fed group",approximate doubling of AUC
same,abiraterone acetate detected in vivo,[5]; following an oral dose of abiraterone acetate at 1000 mg,no abiraterone acetate was detected
same,mean drug exposure (AUC) at 2000 mg relative to 1000 mg,"[5]; previously, in both dosing regimes (fed and fasted)",approximately double
same,"blood plasma levels of androgenic steroids, such as testosterone",[6],declines
same,blood plasma levels of alkaline phosphatase (ALP),[7],declines
same,drug levels at 1000 mg compared with 500 mg,[8]; 1000 mg vs 500 mg Abiraterone acetate,higher
same,drug levels measured at 1000 mg compared with 750 mg fasting,[8]; 1000 mg vs 750 mg in a fasting state,not higher
same,partial radiological responses as measured by CT scans (RECIST),[9]; 20 evaluable Group 1 subjects with measurable tumor lesions,11 subjects
same,subjects with ongoing stable bone disease,[9]; Group 1,Seven
same,subjects with regressing bone disease,[9]; Group 1,three
same,pelvic nodes,[9]; subject administered 250 mg/day (FIG. 10),regression of pelvic nodes
same,mediastinal nodes,[9]; subject administered 500 mg/day (FIG. 13),regression of mediastinal nodes
same,pelvic nodes,[9]; subject administered 750 mg/day (FIG. 11),regression of pelvic nodes
same,pulmonary metastases,[9]; subject administered 750 mg/day (FIG. 14),regression of pulmonary metastases
same,pelvic nodes,[9]; subject administered 1000 mg/day (FIG. 12),regression of pelvic nodes
